Laboratory results reported in patent US20260250524A1, “METAL-PHENOLIC NANOPATTERNS AND METHODS OF MAKING AND USING THE SAME” (NORTHWESTERN UNIVERSITY, priority 2023, published 2026).

Test: Solubility of polyphenols in water
Assay type: physicochemical
Excerpt: Methods of the disclosure can be used to design functional nanopatterns with tunable properties (e.g., mechanical properties that can be varied based on the strength of coordination between the metal ion and polyphenol). For example, the stability and mechanical properties of nanopatterns can be varied based on the strength of coordination between the metal ion and the polyphenol. […] The polymeric, multitopic structure of large polyphenols like TA can provide greater binding affinity to various substrates. These polyphenols also have other different characteristics, such as water solubility. […] This can broaden the range of ink concentrations that are suitable for tip-directed patterning.
Other inks based on different polyphenols (GA, ECG, and EGCG) were prepared according to similar protocols. […] However, ECG had limited solubility of <1 mg/mL in water. Therefore, 0.5 mg/mL was used for ECG-based inks. Unless otherwise noted, the concentration of polyphenol was 5 mg mL^−1 and the molar ratio of polyphenol to metal ion was 1:1. For GA-based inks, the molar ratio of GA to metal ion was 10:1. For the EGCG-Ni ink, the molar ratio of EGCG to Ni was 5:1. These molar ratios were determined after considering the solubility of each metal salt and the molecular weight of each polyphenol.

solubility (in water) [µg/mL]	Compound	water solubility relative to GA, ECG, and EGCG (comparison in words)
< 1000	O=C(O[C@@H]1Cc2c(O)cc(O)cc2O[C@@H]1c1ccc(O)c(O)c1)c1cc(O)c(O)c(O)c1 [ECG, epicatechin gallate]	–
–	O=C(OC[C@H]1O[C@@H](OC(=O)c2cc(O)c(O)c(OC(=O)c3cc(O)c(O)c(O)c3)c2)[C@H](OC(=O)c2cc(O)c(O)c(OC(=O)c3cc(O)c(O)c(O)c3)c2)[C@@H](OC(=O)c2cc(O)c(O)c(OC(=O)c3cc(O)c(O)c(O)c3)c2)[C@@H]1OC(=O)c1cc(O)c(O)c(OC(=O)c2cc(O)c(O)c(O)c2)c1)c1cc(O)c(O)c(OC(=O)c2cc(O)c(O)c(O)c2)c1 [TA, Tannic acid]	substantially higher solubility
